In paper PMC11537999, “Identification of human pregnane X receptor antagonists utilizing a high-throughput screening platform” (Frontiers in Pharmacology, 2024):

What was measured:
[1] = molecular target: T1, hPXR (Homo sapiens, UniProt O75469); experiment: PXR luciferase reporter gene assay (qHTS antagonist mode, rifampicin co-treatment) in HepG2-CYP3A4-hPXR cells; assay type: cell-based; settings: 2 μM rifampicin, used as treatment concentration in HepaRG cells
T1 construct: expressed in transfected cells; provided by Dr. Taosheng Chen, St. Jude
T1 sequence (O75469 1-434): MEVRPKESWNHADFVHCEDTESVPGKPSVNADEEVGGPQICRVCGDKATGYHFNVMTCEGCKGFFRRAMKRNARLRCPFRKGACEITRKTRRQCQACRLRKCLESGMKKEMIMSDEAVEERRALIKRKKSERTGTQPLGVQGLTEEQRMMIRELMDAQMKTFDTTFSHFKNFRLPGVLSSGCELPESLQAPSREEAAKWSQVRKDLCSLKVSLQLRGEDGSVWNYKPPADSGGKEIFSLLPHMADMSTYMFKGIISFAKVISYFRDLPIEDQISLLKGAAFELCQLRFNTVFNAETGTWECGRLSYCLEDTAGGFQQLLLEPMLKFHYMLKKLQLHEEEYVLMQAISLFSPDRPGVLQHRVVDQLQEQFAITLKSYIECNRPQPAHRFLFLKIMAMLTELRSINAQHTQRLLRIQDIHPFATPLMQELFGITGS
Protocol: HepG2 cells stably transfected with a CYP3A4-luc promoter construct and hPXR expression plasmid were provided by Dr. Taosheng Chen (Department of Chemical Biology and Therapeutics, St. Jude Children’s Research Hospital) ([Lin et al., 2008]). Cells were thawed in EMEM (ATCC, Rockville, Maryland), supplemented with 10% Hyclone FBS (GE Healthcare Life Sciences, Logan, Utah) and 100 U/mL of Penicillin and 100 μg/mL of Streptomycin (Invitrogen, Carlsbad, CA) and kept in an incubator at 37°C and 5% CO2. To culture these HepG2-CYP3A4-hPXR cells, 500 μg/mL of Geneticin (GIBCO, Gaithersburg, MD) was added to the thawing media.
(§1) HepG2-CYP3A4-hPXR cells were dispensed into tissue culture treated 1536-well white assay plates (Greiner Bio-One North America, Monroe, NC) using a Multidrop Combi (Thermo Fisher Scientific Inc., Waltham, Massachusetts) at 2,500 cells/4 µL/well. The cell suspension was prepared using new assay media, which contained phenol red-free DMEM (GIBCO), 5% charcoal/dextran-treated FBS (Invitrogen), 1 mM sodium pyruvate (Invitrogen), 2 mM L-Glutamine (Invitrogen), and 100 U/mL of Penicillin and 100 μg/mL of Streptomycin (Invitrogen). All plates were then incubated for 4 h in a 37°C and 5% CO2 incubator. […] In the primary screen, each compound was tested at 7 concentrations ranging from 46 μM to 1.5 nM. 1 μL of rifampicin, a known PXR agonist, was also co-treated in each well, generating a final concentration of 2 μM, using a Flying Reagent Dispenser (Aurora Discovery, Carlsbad, California). All assay plates were placed in an incubator at 37°C with 5% CO2 for 23 h. Following the incubation period, 1 µL of CellTiter-Fluor reagent (Promega, Madison, Wisconsin) was added to each well and all assay plates were placed back into the incubator set at 37°C and 5% CO2 for 1 h. Fluorescence intensity at 540 nm was measured following excitation at 405 nm using a ViewLux plate reader (Perkin Elmer, Shelton, Connecticut), in order to assess cell viability following treatment. Directly after the fluorescent read, 4 μL of ONE-Glo Luciferase reagent (Promega, Madison, Wisconsin) was added to each well using a Flying Reagent Dispenser, and plates were left to sit at room temperature for 30 min. The luminescence of each plate was then measured using the ViewLux plate reader and data were expressed as relative luminescence units. Gross assay performance was assessed by calculating quality metrics, such as coefficient of variance (CV), signal-to-background ratio (S/B), and Z′ factor, a measure of statistical effect size frequently used to judge whether an assay can be scaled up to a large high-throughput screen ([Zhang et al., 1999]).
Data analysis was completed using a previously described protocol ([Huang et al., 2016]). […] Normalized percent activity for all test compounds was determined using the following equation: % activity = [(V compound - V DMSO)/(V DMSO–V pos)] × 100, where V compound denotes the compound well values, V pos denotes the median value of the positive control wells, and V DMSO denotes the median value of the DMSO-only wells. Following normalization, data points were corrected using DMSO-only plates included at the beginning and end of the compound plate stack using an in-house pattern correction algorithm in order to remove background patterns, as well as other small abnormalities within the dataset ([Southall et al., 2009]). […] Efficacy is then [a inf - a 0 ]. a=a0+ainf−a0 c^n/k^n+c^n
Curve class was further converted to curve rank by combining each class with efficacy, such that good quality, efficacious curves are assigned large absolute curve rank values. […] The activity outcome was based on the PXR antagonist readout activity and a cell viability counter screen.

[2] = tested on: CYP3A4 mRNA expression; experiment: CYP3A4 mRNA expression by qRT-PCR in HepaRG cells treated with compound alone; assay type: cell-based, human; settings: 24 h, compound at its IC70 concentration, vs DMSO
Protocol: Fully differentiated NoSpin™ HepaRG™ cells (Lonza, Walkersville, Maryland) were seeded into 12-well collagen-coated plates (Corning) at a density of 8 × 10^5 cells/well using Williams’ E medium (ThermoFisher) supplemented with HepaRG™ thawing and plating medium supplement (Lonza), 25 U/mL penicillin, and 25 μg/mL streptomycin (Invitrogen). The cells were then placed into a 37°C and 5% CO2 incubator for 3 days including a media change before treatment. Cells were then treated with the vehicle control (final concentration of 0.1% DMSO), the positive controls, or test compounds for 24 h before harvesting.
Total RNA was extracted from the cell lysate using an RNeasy Mini kit (Qiagen) according to the manufacturer’s instructions. RNA was reverse transcribed to cDNA using a High-Capacity RNA-to-cDNA kit (Applied Biosystems). CYP3A4 and CYP2B6 mRNA expression were both measured and normalized to the glyceraldehyde-3-phosphate dehydrogenase (GAPDH) housekeeping gene. Real-time PCR was completed using a QuantStudio Real-Time PCR system (Applied Biosystems) with TaqMan probes (CYP3A4 Assay ID: Hs00604506_m1, CYP2B6 Assay ID: Hs04183483_g1, GAPDH Assay ID: Hs99999905_m1, ThermoFisher Scientific, Waltham, MA). Following amplification, induction values were calculated using the equation: Fold = 2^−ΔΔCt, where ΔCt represents the difference in number of cycles required to reach the Ct threshold between CYP3A4 or CYP2B6 and GAPDH, and ΔΔCt represents the relative change in these differences between the control (DMSO) and treatment groups. Experimental data are expressed as a mean of triplicate values ±SD. Statistical analysis was performed using one-way analysis of variance with post hoc Dunnett’s analysis. The statistical significance values were set at p < 0.05 (*), p < 0.01 (**), and p < 0.001 (***).
To overcome the previous screening limitations, we used this more physiologically relevant cell line, HepaRG cells, to run follow-up studies with the PXR antagonists identified from the primary screen which used immortalized cell lines without a metabolic component. Using HepaRG cells, the 20 potential PXR antagonists were treated for 24 h and harvested for mRNA (Supplementary Figure S1).
FIGURE 3 HepaRG cells were treated with the top 20 most promising PXR antagonists identified from the high-throughput screen. […] The concentrations for the test compounds were the IC70 values from the original NPACT screen. Real-time PCR was used to analyze the mRNA expression of CYP3A4. Each bar represents the mean ± SD in triplicate. *, p < 0.05; **, p < 0.01.

[3] = molecular target: T1, hPXR; experiment: Pharmacological inhibition (IC50 shift) assay with varying rifampicin in HepG2-CYP3A4-hPXR cells; assay type: cell-based; settings: co-treated with 2 µM versus 10 µM rifampicin
Protocol: as §1
Each curve was co-treated with 5 μM RIF, 7.5 μM RIF, or 10 μM RIF (a well-known PXR agonist) to determine pharmacological activity. […] Each curve was generated from a combination of all data points together.

| SMILES | IC70 values from the original NPACT screen [1] [µM] | inhibition of CYP3A4 mRNA expression (in words) [2] | decrease in potency [3] |
| --- | --- | --- | --- |
| CN(C)c1cc2c(cc1Sc1nc3c(N)nccc3n1CCNCC(C)(C)C)OCO2 [CUDC-305] | 0.25 |  |  |
| CCN(CC)C(=O)C(c1ccccc1)N1CCN(c2ccc(NC(=O)c3ccccc3-c3cccnc3)cc2F)CC1 (stereo not shown) [JNJ-31020028] | 10 | significantly inhibited CYP3A4 mRNA expression |  |
| CC(C)(C)NC(=O)[C@@H](c1cccnc1)N(C(=O)c1ccco1)c1ccc(C(C)(C)C)cc1 [ML 188] | 1 |  |  |
| CC1CCN(c2cc(NC(=O)c3ccccc3)ncn2)CC1 [ML 340] | 3 |  |  |
| C=C1C(=O)O[C@@H]2[C@H]1CC[C@H](C)[C@]1(CCC(=O)O1)C2(C)O (stereo partly shown) [NCGC00380135-02] | 7 |  |  |
| COC(=O)C[C@H]1C(C)(C)[C@H](OC(=O)c2ccccc2)C2CC3=C4CC(=O)O[C@@H](c5ccoc5)[C@]4(C)CCC3[C@@]1(C)C2=O (stereo partly shown) [NCGC00384964-01] | 15 |  |  |
| CC(C)(O)C1Cc2c(ccc(C(=O)CCc3ccccc3)c2O)O1 (stereo not shown) [NCGC00385629-01] | 0.8 |  |  |
| CC(C)C[C@@H](C(=O)N[C@@H](Cc1ccc(OCc2ccccc2)cc1)C(=O)NC(C)(C)C)N(C)Cc1ccc(C(C)(C)C)cc1 [PD 173212] | 3 |  |  |
| CC(C)NCCCn1c(Sc2cc3c(cc2I)OCO3)nc2c(N)ncnc21 [PU-H71] | 0.5 | significantly inhibited CYP3A4 mRNA expression |  |
| Cc1cccc2c1CC[C@H](CN1CCC(c3c(Cl)cccc3Cl)CC1)C[C@@H]2O [SB-612111] | 8 |  |  |
| COc1ccc(OC)c(-n2nnc(S(=O)(=O)c3ccc(C(C)(C)C)cc3)c2C)c1 [SPA70, 4-(4-tert-Butylphenylsulfonyl)-1-(2,5-dimethoxyphenyl)-5-methyl-1H-1,2,3-triazole] |  |  | more than 2 fold |
| Cc1ccccc1C#Cc1ccc(CCC(=O)O)cc1 [TUG-424] | 3 |  |  |
| CCCCCOc1cc2c(cc1-c1cc(/C=C/C(=O)O)ccc1O)C(C)(C)CCC2(C)C [UVI 3003] | 0.8 | generated CYP3A4 inhibition but not to a significant degree |  |
| CC[C@@H](C)Nc1cc(C(=O)N[C@H]2C[C@H]3CC[C@@H](C2)N3c2ccc(C(=O)C3CC3)cn2)c(C)cc1C(N)=O [XL-888] | 0.5 |  |  |
| COC(=O)C1=C(C)NC(COC(N)=O)=C(C(=O)OC(C)C)C1c1cccc(Cl)c1Cl (stereo not shown) [lemildipine] | 0.6 |  |  |
| c1ccc2c(Oc3nc(Nc4ccc(N5CCOCC5)cc4)c4ncn(C5CCCCC5)c4n3)cccc2c1 [purmorpharmine] | 10 |  |  |
